Test results as given in US20110038885A1, “CHEMOKINE ANALOGS” (priority 2007, published 2011).
Bridge positions count the residues as written; N and C are the ends. Square brackets hold non-standard residues; d marks the D form. Peptide text beside a SMILES is read from it. * marks the point of attachment. Butyryl = CCCC(=O)*

Tests used:
IL-8 = test: In vitro chemotaxis, inhibition v IL-8; assay type: cell-based, human; parameters: concentration or dose not given beside the values
Outline: (§1)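 Human THP-1 monocytes (10^4-10^6) with agent at varying concentrations in upper trans-well chamber; IL-8 or MCP-1 in lower chamber at a migration-inducing concentration, 37° C for e.g. 4 hours. Migrated cells quantified by MTT (595 nm) against a THP-1 standard curve; cytotoxicity and non-chemokine chemoattractant controls run.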

MCP-1 = test: In vitro chemotaxis (trans-well migration) v MCP-1; assay type: cell-based, human
Outline: as §1

Half-life in rat in vivo = conditions: for half-life: read-out: T ½ rat in vivo

SMILES	EC50 (MCP-1) [nM]	half-life (Half-life in rat in vivo) [min]	T ½ rat in vivo (Half-life in rat in vivo) [min]	v IL-8 inhibition (%) (IL-8)
CC[C@H](C)[C@@H]1NC(=O)[C@H](Cc2c[nH]c3ccccc23)NC(=O)[C@H](CCCCN)NC(=O)[C@H](CCC(N)=O)NC(=O)[C@H](CCCCN)NC(=O)[C@@H]2CCCN2C(=O)[C@H](CC(=O)O)NC(=O)[C@H](CC(C)C)NC(=O)[C@@H](NC(C)=O)CSSC[C@@H](C(N)=O)NC(=O)[C@H](CCC(N)=O)NC1=O [Example 9, Ac-c(Cys-Leu-Asp-Pro-Lys-Gln-Lys-Trp-Ile-Gln-Cys)-NH2] (Ac-CLDPKQKWIQC-NH2; disulfide 1-11)	2	5.4	–	102.3
CC[C@H](C)[C@@H]1NC(=O)[C@H](Cc2c[nH]c3ccccc23)NC(=O)[C@H](CCCCN)NC(=O)[C@H](CCC(N)=O)NC(=O)[C@H](CCCCN)NC(=O)[C@@H]2CCCN2C(=O)[C@H](CC(=O)O)NC(=O)[C@@H](NC(=O)[C@H](CC(C)C)NC(C)=O)CSSC[C@@H](C(N)=O)NC(=O)[C@H](CCC(N)=O)NC1=O [Example 19, Ac-Leu-c(Cys-Asp-Pro-Lys-Gln-Lys-Trp-Ile-Gln-Cys)-NH2] (Ac-LCDPKQKWIQC-NH2; disulfide 2-11)	7	< 5	–	100.5
CC[C@H](C)[C@@H]1NC(=O)[C@H](Cc2c[nH]c3ccccc23)NC(=O)[C@H](CCCCN)NC(=O)[C@H](CCC(N)=O)NC(=O)[C@H](CCCCN)NC(=O)[C@@H]2CCCN2C(=O)[C@@H](NC(=O)[C@H](CC(=O)O)NC(=O)[C@H](CC(C)C)NC(C)=O)CSSC[C@@H](C(N)=O)NC(=O)[C@H](CCC(N)=O)NC1=O [Example 20, Ac-Leu-Asp-c(Cys-Pro-Lys-Gln-Lys-Trp-Ile-Gln-Cys)-NH2] (Ac-LDCPKQKWIQC-NH2; disulfide 3-11)	8	2.7	4.7	93.9

Second part, led by results:

EC50 (MCP-1) [nM]	half-life (Half-life in rat in vivo) [min]	T ½ rat in vivo (Half-life in rat in vivo) [min]	SMILES	v IL-8 inhibition (%) (IL-8)
7	22	–	CC[C@H](C)[C@@H]1NC(=O)[C@H](Cc2c[nH]c3ccccc23)NC(=O)[C@H](CCCCN)NC(=O)[C@H](CCC(N)=O)NC(=O)[C@H](CCCCN)NC(=O)[C@@H](NC(=O)[C@@H]2CCCN2C(=O)[C@H](CC(=O)O)NC(=O)[C@H](CC(C)C)NC(C)=O)CSSC[C@@H](C(N)=O)NC(=O)[C@H](CCC(N)=O)NC1=O [Example 21, Ac-Leu-Asp-Pro-c(Cys-Lys-Gln-Lys-Trp-Ile-Gln-Cys)-NH2] (Ac-LDPCKQKWIQC-NH2; disulfide 4-11)	96.3
10	30.3	20.9	CC[C@H](C)[C@@H]1NC(=O)[C@H](Cc2c[nH]c3ccccc23)NC(=O)[C@H](CCCCN)NC(=O)[C@@H](NC(=O)[C@H](CCC(N)=O)NC(C)=O)CSSC[C@@H](C(N)=O)NC(=O)[C@H](CCC(N)=O)NC1=O [Example 54, Ac-Gln-c(Cys-Lys-Trp-Ile-Gln-Cys)-NH2] (Ac-QCKWIQC-NH2; disulfide 2-7)	–
6	18	16.5	CC[C@H](C)[C@@H]1NC(=O)[C@H](Cc2c[nH]c3ccccc23)NC(=O)[C@H](CCCCN)NC(=O)[C@@H](NC(C)=O)CSSC[C@@H](C(N)=O)NC(=O)[C@H](CCC(N)=O)NC1=O [Example 55, Ac-c(Cys-Lys-Trp-Ile-Gln-Cys)-NH2] (Ac-CKWIQC-NH2; disulfide 1-6)	–
5	30	–	CCCC(=O)N[C@@H]1CSSC[C@H](C(N)=O)NC(=O)[C@@H](CCCCN)NC(=O)[C@@H](Cc2c[nH]c3ccccc23)NC(=O)[C@@H]([C@H](C)CC)NC(=O)[C@@H](CCC(N)=O)NC1=O [Example 191, nButyryl-c(D-Cys-D-Gln-D-Ile-D-Trp-D-Lys-D-Cys)-NH2] (Butyryl-[dC][dQ][dI][dW][dK][dC]-NH2; disulfide 1-6)	–
